Experimental data from PubChem BioAssay AID687005 (Broad Institute, 2013).
Results filed as inconclusive are left out. Calls of active or inactive are those of the source.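 How the source made its calls: active means Compounds that reduce signal, with fitted half-maximal dose at or under twice the top valid tested dose; inconclusive means Poor fit, or flat curve losing 30 to 70% of signal; inactive means Potency past limit, flat within 30%, or opposite direction.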

Experiment: viability loss in HEK293T cells – cell-based, ATP luminescence, cherry-pick samples, cytotoxicity control, dose response (AID 687005)
Settings: HEK293T viability, ATP luminescence (CellTiter-Glo), 48 h

Structure (SMILES) | activity change, negative = cytotoxicity (at 26 µM (top of the series)) | also measured
COc1cccc(S(=O)(=O)N2C[C@@H](O)COC[C@H]3O[C@H](CC(=O)Nc4ccccc4)CC[C@@H]32)c1 | -41.6% (inactive) | 
COc1cccc(CNC(=O)COc2ccc(C(=O)c3ccccc3)cc2)c1 | 10% (inactive) | 
C[C@@H]1CN([C@@H](C)CO)C(=O)c2cc(NC(=O)Nc3ccc4c(c3)OCO4)ccc2O[C@H]1CN(C)Cc1ccc(Oc2ccccc2)cc1 |  | activity change, negative = cytotoxicity (at 23.5 µM (top of the series)): -38.4% (inactive)
CCC(=O)N(C)C[C@H]1Oc2cc(-c3ccccc3)ccc2S(=O)(=O)N([C@H](C)CO)C[C@H]1C | 6.53% (inactive) | 
C[C@H]1CN([C@@H](C)CO)C(=O)c2cc(NC(=O)Nc3cccc4ccccc34)ccc2O[C@@H]1CN(C)C(=O)Nc1ccc(C(F)(F)F)cc1 | 1.29% (inactive) | 
CNC(=O)C[C@H]1CC[C@H]2[C@@H](COc3ccc(NC(=O)Nc4cccc(C#N)c4)cc3C(=O)N2C)O1 | 23.1% (inactive) | 
CNC(=O)CN(c1ccc(C)cc1)S(=O)(=O)c1ccccc1 |  | activity change, negative = cytotoxicity (at 30 µM (top of the series)): -17.7% (inactive)
C[C@@H]1CN([C@@H](C)CO)C(=O)c2cc(NC(=O)Nc3ccccc3)ccc2O[C@@H]1CN(C)C(=O)Nc1cccc2ccccc12 | 203% (inactive) | 
COc1ccc(CN(C)C[C@@H]2Oc3ccc(NC(=O)C4CC4)cc3C(=O)N([C@H](C)CO)C[C@H]2C)cc1 | 15.3% (inactive) | 
C[C@H](CO)N1C[C@H](C)[C@@H](CN(C)C(=O)c2cccc(F)c2)Oc2cc(-c3cncnc3)ccc2S1(=O)=O | -22.6% (inactive) | 
COc1ccc(NC(=O)Nc2ccc3c(c2)C(=O)N([C@H](C)CO)C[C@@H](C)[C@H](CN(C)S(=O)(=O)c2ccc(Cl)cc2)OCCCC[C@@H](C)O3)cc1 | -9.56% (inactive) | 
O=C(NCCc1ccccc1)[C@H]1[C@H](CO)[C@H]2Cn3c(cccc3=O)[C@@H]1N2C(=O)C1CCC1 | 7.71% (inactive) | 
C[C@@H]1CCCCO[C@H](CN(C)Cc2ccncc2)[C@@H](C)CN([C@H](C)CO)C(=O)c2cc(N(C)C)ccc2O1 | -3.32% (inactive) | 
CCCN1C[C@@H](C)[C@H](OC)CN(C)C(=O)c2ccc(NC(=O)c3cccc(F)c3)cc2OC[C@@H]1C | -7.98% (inactive) | 
C[C@H](CO)N1C[C@H](C)[C@H](CN(C)Cc2ccccc2)Oc2cc(C#Cc3ccccn3)ccc2S1(=O)=O | -48.6% (inactive) | 
CCCNC(=O)C[C@@H]1CC[C@@H]2[C@H](COc3ccc(NC(=O)CCC)cc3C(=O)N2C)O1 | 52.7% (inactive) | 
CCCNC(=O)C[C@H]1CC[C@H]2[C@@H](COC[C@@H](O)CN2S(=O)(=O)c2ccc(Oc3ccccc3)cc2)O1 | -8.05% (inactive) | 
O=C(NC(=S)NCC1COc2ccccc2O1)c1ccc(Cl)cc1 (centres undefined) |  | activity change, negative = cytotoxicity (at 35 µM (top of the series)): -9.32% (inactive)
C[C@@H]1CCCCO[C@H](CN(C)S(=O)(=O)c2cccs2)[C@@H](C)CN([C@@H](C)CO)C(=O)c2cc(NC(=O)CCC(F)(F)F)ccc2O1 | 0.337% (inactive) | 
CCC(C(=O)Nc1c(C)cc(C)cc1C)N1CCCCCC1 (centres undefined) | 18.8% (inactive) | 
COCC(=O)N(C)C[C@H]1Oc2ncc(-c3ccccc3F)cc2C(=O)N([C@@H](C)CO)C[C@H]1C | -32.3% (inactive) | 
Cc1cccc(C)c1NC(=S)NN(Cc1ccccc1)c1ccccc1 | 15.7% (inactive) | 

Structure (SMILES) | activity change, negative = cytotoxicity (at 26 µM (top of the series)) | also measured
CCC(=O)N1C[C@H](O)COC[C@@H]2O[C@@H](CC(=O)NCc3ccccc3Cl)CC[C@H]21 | 1.37% (inactive) | 
CN1C(=O)c2cc(NC(=O)NC3CCCC3)ccc2OC[C@H]2O[C@@H](CC(=O)NC3CCC3)CC[C@@H]21 | 0.295% (inactive) | 
CCC(C)c1ccc(NC(=S)N2CCN(c3ccccn3)CC2)cc1 (centres undefined) | 13.7% (inactive) | 
CC(C)NC(=O)N(C)C[C@@H]1OCCCC[C@@H](C)Oc2ccc(NC(=O)c3ccccc3)cc2C(=O)N([C@H](C)CO)C[C@@H]1C | -7.94% (inactive) | 
C[C@H]1CN([C@@H](C)CO)C(=O)c2cc(NC(=O)CCN3CCOCC3)ccc2O[C@@H]1CN(C)Cc1ccc(C(=O)O)cc1 | 36.2% (inactive) | 
C/C=C/c1ccc([C@H]2[C@@H](C#N)N(S(=O)(=O)c3cccc(F)c3)[C@H]2CO)cc1 |  | activity change, negative = cytotoxicity (at 23.5 µM (top of the series)): 7.73% (inactive)
C#CCN(C(=O)c1ccc(OC2CCN(C(=O)CCOC)CC2)cc1)C1CCCCC1 | 8.74% (inactive) | 
COC(=O)C1=C(C)N(Cc2ccccc2)C(=S)NC1c1ccc(Br)cc1 (centres undefined) |  | activity change, negative = cytotoxicity (at 23.5 µM (top of the series)): -9.89% (inactive)
CCC(=O)N[C@@H]1C=C[C@H](CC(=O)NCC2CCCCC2)O[C@H]1CO | -35.2% (inactive) | 
CC1CCCCN1C(=O)CSc1nc(C2CC2)nc2c1cnn2-c1ccccc1 (centres undefined) | 39.5% (inactive) | 
COC(=O)C1=C(C)N(Cc2ccc(F)cc2)C(=S)NC1c1cccc(OC)c1 (centres undefined) | 4.8% (inactive) | 
CNC(=O)C[C@@H]1CC[C@@H]2[C@H](COc3ccc(NC(=O)c4cc(C)on4)cc3C(=O)N2C)O1 |  | activity change, negative = cytotoxicity (at 23.5 µM (top of the series)): 26.8% (inactive)
O=C(CN(c1ccc(F)cc1)S(=O)(=O)c1ccccc1)N1CCOCC1 | -20% (inactive) | 
Cc1ccc(C2CC(c3cccs3)=NN2C(=O)c2ccc(Br)o2)cc1 (centres undefined) | 39% (inactive) | 
Cc1ccc(S(=O)(=O)N[C@H]2CC[C@H](CCNC(=O)C3CCCC3)O[C@@H]2CO)cc1 | -7.25% (inactive) | 
COC(=O)C1=C(C)N(Cc2ccc(Cl)cc2)C(=S)NC1c1cccc(OC)c1 (centres undefined) | -34.3% (inactive) | 
CCNC(=O)C[C@H]1CC[C@@H](NC(=O)NC2CCCCC2)[C@H](CO)O1 | -2.42% (inactive) | 
COc1ccccc1-c1ccc2c(c1)O[C@@H](CN(C)C(=O)c1cccnc1)[C@H](C)CN([C@@H](C)CO)S2(=O)=O | -38% (inactive) | 
Cc1noc(C)c1NC(=O)Nc1cccc2c1O[C@@H](CN(C)S(=O)(=O)c1cn(C)cn1)[C@@H](C)CN([C@@H](C)CO)C2=O | -3.21% (inactive) | 
CN1C(=O)c2cc(NC(=O)Nc3ccc(Cl)cc3)ccc2OC[C@H]2O[C@@H](CC(=O)NCCN3CCCCC3)CC[C@@H]21 | 36.5% (inactive) | 
CCCC(=O)Nc1ccc2c(c1)OC[C@@H](C)N(Cc1ccccn1)C[C@@H](C)[C@H](OC)CN(C)C2=O | 25.3% (inactive) | 
COc1cccc(S(=O)(=O)Nc2ccc3c(c2)[C@H]2C[C@H](CC(=O)NCc4ccccc4F)O[C@@H](CO)[C@H]2O3)c1 | 2.6% (inactive) | 

Structure (SMILES) | activity change, negative = cytotoxicity (at 26 µM (top of the series)) | also measured
C[C@H]1CN([C@@H](C)CO)C(=O)c2cccc(NS(C)(=O)=O)c2O[C@@H]1CN(C)Cc1ccc(-c2ccccc2)cc1 | -8.66% (inactive) | 
C[C@@H]1CCCCO[C@@H](CN(C)C(=O)NC2CCCCC2)[C@H](C)CN([C@@H](C)CO)C(=O)c2cc(NS(=O)(=O)c3cn(C)cn3)ccc2O1 | 36.8% (inactive) | 
Cc1cc(Cl)ccc1NC(=S)NCc1ccc(F)cc1 | 6.1% (inactive) | 
O=C(C[C@@H]1CC[C@@H]2[C@H](COC[C@H](O)CN2Cc2cccc(C(F)(F)F)c2)O1)NCc1ccccc1 | 4.02% (inactive) | 
C[C@@H]1CN([C@H](C)CO)C(=O)c2cc(NS(=O)(=O)c3ccc(Cl)cc3)ccc2O[C@H]1CN(C)S(=O)(=O)c1ccc(F)cc1 | 38.8% (inactive) | 
CN(C[C@H]1N[C@@H](CO)[C@H]1c1ccc(-c2cccc(F)c2)cc1)S(C)(=O)=O | 61.6% (inactive) | 
COc1ccc(NC(=O)N(C)C[C@H]2OCc3ccccc3-c3c(n(C)c4ccccc34)C(=O)N([C@H](C)CO)C[C@@H]2C)cc1 | -4.07% (inactive) | 
CCCNC(=O)Nc1ccc2c(c1)C(=O)N(C)C[C@@H](OC)[C@@H](C)CN(C(=O)CC)[C@H](C)CO2 | -2.92% (inactive) | 
O=S1(=O)CCC(N=Cc2cc(Br)ccc2O)C1 (centres undefined) | 37.7% (inactive) | 
Cc1ccc(S(=O)(=O)Nc2ccc3c(c2)C(=O)N([C@H](C)CO)C[C@H](C)[C@@H](CN(C)Cc2ccccc2)O3)cc1 | 43.1% (inactive) | 
C[C@H]1CN([C@@H](C)CO)C(=O)Cc2cc(NC(=O)Nc3cccc4ccccc34)ccc2O[C@H]1CN(C)S(=O)(=O)c1cccs1 | -25.9% (inactive) | 
O=C(c1c(Cl)cccc1Cl)N1CCN(c2ccccn2)CC1 | -3.99% (inactive) | 
Cc1ccc(NC(=O)C2(C)CCCN2CC(C)C)cc1C (centres undefined) |  | activity change, negative = cytotoxicity (at 42 µM (top of the series)): -2.43% (inactive)
COc1ccc(NC(=O)N(C)C[C@H]2OCCCC[C@H](C)Oc3ccc(NC(=O)C4CCCCC4)cc3C(=O)N([C@@H](C)CO)C[C@@H]2C)cc1 | -27.2% (inactive) | 
CC(C)C#Cc1ccc2c(c1)O[C@H](CN(C)C(=O)Cc1ccccn1)[C@H](C)CN([C@H](C)CO)S2(=O)=O | -25.6% (inactive) | 
CCNC(=O)CN(c1ccccc1)S(=O)(=O)c1ccc(Cl)cc1 | -16.3% (inactive) | 
Cc1ccc(S(=O)(=O)N[C@@H]2CC[C@H](CCNC(=O)C3CCCC3)O[C@@H]2CO)cc1 | -17.8% (inactive) | 
C[C@@H]1CN([C@@H](C)CO)C(=O)c2cc(-c3cncnc3)cnc2O[C@H]1CN(C)C(=O)CN1CCOCC1 | -25.3% (inactive) | 
COc1cccc(S(=O)(=O)Nc2ccc3c(c2)[C@@H]2C[C@H](CC(=O)NC4CCCCC4)O[C@H](CO)[C@@H]2O3)c1 | -27.9% (inactive) | 
CCC(=O)Nc1ccc2c(c1)C(=O)N(C)C[C@H](OC)[C@@H](C)CN[C@H](C)CO2 | 29.1% (inactive) | 
